SMILES strings stand for the structures.

Consider 15 compounds from ChEMBL document CHEMBL5252522 (Eur J Med Chem, 2016).

One assay addresses Histone deacetylase 1 (Homo sapiens, UniProt Q13547). The assay is described as follows: Inhibition of HDAC1 (unknown origin).
In another assay the target is T1, Histone deacetylase 8 (Homo sapiens, UniProt Q9BY41).
T1 sequence (Q9BY41 whole entry): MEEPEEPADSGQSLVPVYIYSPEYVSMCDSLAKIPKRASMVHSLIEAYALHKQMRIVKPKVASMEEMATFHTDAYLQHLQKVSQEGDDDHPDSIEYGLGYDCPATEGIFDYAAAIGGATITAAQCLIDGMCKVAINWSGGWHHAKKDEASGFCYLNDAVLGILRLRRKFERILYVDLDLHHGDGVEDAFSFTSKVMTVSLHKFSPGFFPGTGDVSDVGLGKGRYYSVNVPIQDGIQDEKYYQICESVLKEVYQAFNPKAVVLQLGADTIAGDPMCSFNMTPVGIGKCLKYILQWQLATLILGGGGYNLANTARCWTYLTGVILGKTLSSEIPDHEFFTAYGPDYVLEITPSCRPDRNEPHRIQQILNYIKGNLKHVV
The assay is described as follows: Inhibition of HDAC8 (unknown origin).

The target of assay [1] is T2, Protein deacetylase HDAC6 (Homo sapiens, UniProt Q9UBN7).
T2 sequence (Q9UBN7 whole entry): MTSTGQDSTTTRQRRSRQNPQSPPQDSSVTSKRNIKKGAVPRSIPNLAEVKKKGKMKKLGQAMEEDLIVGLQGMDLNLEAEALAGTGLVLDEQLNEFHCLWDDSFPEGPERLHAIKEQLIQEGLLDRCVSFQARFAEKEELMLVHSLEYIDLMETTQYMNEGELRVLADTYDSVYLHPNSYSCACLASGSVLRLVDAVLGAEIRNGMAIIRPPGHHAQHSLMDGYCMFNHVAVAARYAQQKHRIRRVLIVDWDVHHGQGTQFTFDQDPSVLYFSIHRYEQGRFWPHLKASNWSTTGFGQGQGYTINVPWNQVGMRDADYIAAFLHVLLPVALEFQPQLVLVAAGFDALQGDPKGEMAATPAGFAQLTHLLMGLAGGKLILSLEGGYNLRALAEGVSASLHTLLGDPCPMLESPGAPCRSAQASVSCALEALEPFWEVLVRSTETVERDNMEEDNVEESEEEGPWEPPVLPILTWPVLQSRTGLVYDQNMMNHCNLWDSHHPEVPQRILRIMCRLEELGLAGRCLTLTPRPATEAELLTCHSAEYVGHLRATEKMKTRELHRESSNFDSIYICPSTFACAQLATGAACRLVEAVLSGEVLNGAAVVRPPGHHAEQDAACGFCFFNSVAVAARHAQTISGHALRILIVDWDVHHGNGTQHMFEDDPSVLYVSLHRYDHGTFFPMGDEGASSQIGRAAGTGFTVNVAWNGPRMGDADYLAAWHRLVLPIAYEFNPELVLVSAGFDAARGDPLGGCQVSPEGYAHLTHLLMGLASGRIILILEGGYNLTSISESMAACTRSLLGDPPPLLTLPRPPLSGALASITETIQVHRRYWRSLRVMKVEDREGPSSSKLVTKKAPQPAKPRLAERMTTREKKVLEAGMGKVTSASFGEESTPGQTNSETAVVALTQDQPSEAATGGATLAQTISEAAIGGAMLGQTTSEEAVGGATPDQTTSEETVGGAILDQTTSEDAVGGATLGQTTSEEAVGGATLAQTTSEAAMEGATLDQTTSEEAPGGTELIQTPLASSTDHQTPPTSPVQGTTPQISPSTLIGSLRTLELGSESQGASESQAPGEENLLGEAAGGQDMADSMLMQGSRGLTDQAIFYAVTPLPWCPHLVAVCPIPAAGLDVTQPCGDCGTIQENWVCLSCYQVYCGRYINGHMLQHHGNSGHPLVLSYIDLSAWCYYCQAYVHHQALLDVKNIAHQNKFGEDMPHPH
The assay is described as follows: Inhibition of HDAC6 (unknown origin).

The next assay has as its target Histone deacetylase 3 (Homo sapiens, UniProt O15379). The assay is described as follows: Inhibition of HDAC3 (unknown origin).
The next assay deals with Histone deacetylase. In kind it is protein assay, Homo sapiens.
The target of another assay is Histone deacetylase 2 (Homo sapiens, UniProt Q92769).
Histone deacetylase 2, sequence (Q92769 whole entry): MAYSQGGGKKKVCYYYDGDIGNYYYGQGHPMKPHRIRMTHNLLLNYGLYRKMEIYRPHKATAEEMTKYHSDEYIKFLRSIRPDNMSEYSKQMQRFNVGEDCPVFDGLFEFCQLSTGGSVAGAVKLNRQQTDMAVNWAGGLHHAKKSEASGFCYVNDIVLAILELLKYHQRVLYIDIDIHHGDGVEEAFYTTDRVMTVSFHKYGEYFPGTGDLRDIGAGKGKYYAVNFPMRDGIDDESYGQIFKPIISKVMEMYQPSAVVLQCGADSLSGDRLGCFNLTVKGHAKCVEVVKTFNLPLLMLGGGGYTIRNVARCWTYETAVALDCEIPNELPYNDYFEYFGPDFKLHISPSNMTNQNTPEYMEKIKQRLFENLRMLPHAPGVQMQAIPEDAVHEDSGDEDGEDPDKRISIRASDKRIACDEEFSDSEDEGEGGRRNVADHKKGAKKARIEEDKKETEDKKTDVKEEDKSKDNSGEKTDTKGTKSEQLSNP
The target in the next assay is T3, Histone deacetylase 7 (Homo sapiens, UniProt Q8WUI4).
T3 sequence (Q8WUI4 whole entry): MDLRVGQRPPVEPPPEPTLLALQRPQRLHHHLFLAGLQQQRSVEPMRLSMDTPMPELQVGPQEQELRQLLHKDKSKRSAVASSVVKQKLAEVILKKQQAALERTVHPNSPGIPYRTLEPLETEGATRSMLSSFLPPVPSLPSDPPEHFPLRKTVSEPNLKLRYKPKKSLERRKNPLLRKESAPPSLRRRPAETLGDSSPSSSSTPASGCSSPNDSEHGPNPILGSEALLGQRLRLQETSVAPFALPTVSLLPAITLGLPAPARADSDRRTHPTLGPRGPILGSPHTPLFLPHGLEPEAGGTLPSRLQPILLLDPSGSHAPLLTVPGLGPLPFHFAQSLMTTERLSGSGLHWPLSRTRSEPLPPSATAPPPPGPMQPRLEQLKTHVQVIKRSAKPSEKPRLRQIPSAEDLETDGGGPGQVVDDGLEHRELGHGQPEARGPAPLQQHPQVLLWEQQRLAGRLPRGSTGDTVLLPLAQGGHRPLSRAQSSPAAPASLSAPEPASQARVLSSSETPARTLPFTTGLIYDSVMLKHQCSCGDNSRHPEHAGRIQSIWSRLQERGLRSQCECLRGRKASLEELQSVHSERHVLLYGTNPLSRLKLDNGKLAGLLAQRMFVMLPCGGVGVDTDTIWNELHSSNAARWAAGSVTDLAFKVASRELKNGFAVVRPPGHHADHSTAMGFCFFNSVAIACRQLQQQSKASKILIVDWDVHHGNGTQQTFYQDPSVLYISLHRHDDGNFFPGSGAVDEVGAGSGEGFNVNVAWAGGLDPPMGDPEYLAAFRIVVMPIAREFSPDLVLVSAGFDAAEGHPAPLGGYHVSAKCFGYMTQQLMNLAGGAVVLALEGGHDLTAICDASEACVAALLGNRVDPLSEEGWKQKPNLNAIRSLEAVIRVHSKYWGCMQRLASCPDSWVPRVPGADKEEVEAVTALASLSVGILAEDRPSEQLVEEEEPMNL
The assay is described as follows: Inhibition of HDAC7 (unknown origin).

Another assay has as its target T4, Histone deacetylase 11 (Homo sapiens, UniProt Q96DB2).
T4 sequence (Q96DB2 whole entry): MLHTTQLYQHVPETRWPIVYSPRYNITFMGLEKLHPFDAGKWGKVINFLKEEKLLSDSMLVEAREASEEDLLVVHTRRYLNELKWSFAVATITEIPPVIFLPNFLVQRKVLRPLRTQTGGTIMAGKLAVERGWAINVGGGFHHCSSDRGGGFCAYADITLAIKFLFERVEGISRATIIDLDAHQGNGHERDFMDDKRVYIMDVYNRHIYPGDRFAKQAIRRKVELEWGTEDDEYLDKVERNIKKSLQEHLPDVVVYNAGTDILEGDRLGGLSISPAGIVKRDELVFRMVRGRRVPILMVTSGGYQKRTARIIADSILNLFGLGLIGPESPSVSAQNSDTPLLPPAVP
The assay is described as follows: Inhibition of HDAC11 (unknown origin).

Another assay has as its target Histone deacetylase 4 (Homo sapiens, UniProt P56524). The assay is described as follows: Inhibition of HDAC4 (unknown origin).
The target in a further assay is Histone deacetylase 9 (Homo sapiens, UniProt Q9UKV0). Nature of the assay: Inhibition of HDAC9 (unknown origin).
Histone deacetylase 9, sequence (Q9UKV0 whole entry): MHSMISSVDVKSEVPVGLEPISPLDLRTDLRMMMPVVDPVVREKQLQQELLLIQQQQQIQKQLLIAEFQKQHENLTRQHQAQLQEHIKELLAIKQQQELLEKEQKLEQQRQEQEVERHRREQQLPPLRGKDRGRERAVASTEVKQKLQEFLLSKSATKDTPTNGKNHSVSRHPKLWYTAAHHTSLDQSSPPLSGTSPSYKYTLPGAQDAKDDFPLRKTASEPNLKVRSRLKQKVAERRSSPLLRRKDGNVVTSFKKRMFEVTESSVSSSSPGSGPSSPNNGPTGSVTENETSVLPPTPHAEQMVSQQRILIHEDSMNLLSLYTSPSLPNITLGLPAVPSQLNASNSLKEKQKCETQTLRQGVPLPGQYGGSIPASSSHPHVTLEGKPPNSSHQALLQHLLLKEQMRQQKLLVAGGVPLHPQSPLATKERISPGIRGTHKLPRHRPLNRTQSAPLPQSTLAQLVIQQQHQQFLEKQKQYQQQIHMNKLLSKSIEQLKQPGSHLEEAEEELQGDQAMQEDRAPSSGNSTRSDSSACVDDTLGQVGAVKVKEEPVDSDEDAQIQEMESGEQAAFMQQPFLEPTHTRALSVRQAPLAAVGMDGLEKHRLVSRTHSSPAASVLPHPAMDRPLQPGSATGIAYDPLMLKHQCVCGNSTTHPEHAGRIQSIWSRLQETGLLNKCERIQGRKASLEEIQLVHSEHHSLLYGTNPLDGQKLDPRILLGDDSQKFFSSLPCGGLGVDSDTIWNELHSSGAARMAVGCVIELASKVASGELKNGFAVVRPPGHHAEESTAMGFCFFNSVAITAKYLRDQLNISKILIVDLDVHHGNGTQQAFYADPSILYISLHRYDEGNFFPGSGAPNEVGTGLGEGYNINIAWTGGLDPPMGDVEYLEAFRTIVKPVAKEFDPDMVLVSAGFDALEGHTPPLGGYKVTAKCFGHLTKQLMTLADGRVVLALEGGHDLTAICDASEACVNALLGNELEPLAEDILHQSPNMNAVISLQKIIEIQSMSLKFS
The target of another assay is Histone deacetylase 5 (Homo sapiens, UniProt Q9UQL6). Nature of the assay: Inhibition of HDAC5 (unknown origin).
Histone deacetylase 5, sequence (Q9UQL6 whole entry): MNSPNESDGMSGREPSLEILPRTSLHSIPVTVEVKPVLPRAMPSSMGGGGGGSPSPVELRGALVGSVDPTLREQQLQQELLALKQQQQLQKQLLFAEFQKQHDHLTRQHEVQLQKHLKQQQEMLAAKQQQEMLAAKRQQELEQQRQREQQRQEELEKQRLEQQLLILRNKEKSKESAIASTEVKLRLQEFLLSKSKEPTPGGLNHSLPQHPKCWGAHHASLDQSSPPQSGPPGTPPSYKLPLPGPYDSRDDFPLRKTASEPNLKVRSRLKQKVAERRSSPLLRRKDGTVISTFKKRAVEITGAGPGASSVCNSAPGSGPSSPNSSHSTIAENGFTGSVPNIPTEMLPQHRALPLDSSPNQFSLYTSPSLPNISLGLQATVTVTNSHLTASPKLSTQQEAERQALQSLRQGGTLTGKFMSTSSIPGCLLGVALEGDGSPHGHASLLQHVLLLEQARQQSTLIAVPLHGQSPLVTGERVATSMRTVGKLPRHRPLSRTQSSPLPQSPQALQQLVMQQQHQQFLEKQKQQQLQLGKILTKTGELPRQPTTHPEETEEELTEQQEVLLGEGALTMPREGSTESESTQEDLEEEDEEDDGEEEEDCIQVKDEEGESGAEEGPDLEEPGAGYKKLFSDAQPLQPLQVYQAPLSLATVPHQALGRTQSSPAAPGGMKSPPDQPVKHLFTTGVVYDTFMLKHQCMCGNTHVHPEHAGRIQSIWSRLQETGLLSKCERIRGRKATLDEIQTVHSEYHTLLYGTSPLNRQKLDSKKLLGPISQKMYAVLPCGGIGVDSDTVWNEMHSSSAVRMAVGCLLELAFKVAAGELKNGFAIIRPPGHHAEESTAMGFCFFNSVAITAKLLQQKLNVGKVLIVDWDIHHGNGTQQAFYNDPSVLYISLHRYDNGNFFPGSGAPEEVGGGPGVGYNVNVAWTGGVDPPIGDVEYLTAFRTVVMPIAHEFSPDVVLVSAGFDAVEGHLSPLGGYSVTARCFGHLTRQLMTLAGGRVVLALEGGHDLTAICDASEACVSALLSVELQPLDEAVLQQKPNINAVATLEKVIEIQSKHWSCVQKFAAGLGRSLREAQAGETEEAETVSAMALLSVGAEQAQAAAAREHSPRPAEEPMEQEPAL
In assay [2] the target is T5, Polyamine deacetylase HDAC10 (Homo sapiens, UniProt Q969S8).
T5 sequence (Q969S8 whole entry): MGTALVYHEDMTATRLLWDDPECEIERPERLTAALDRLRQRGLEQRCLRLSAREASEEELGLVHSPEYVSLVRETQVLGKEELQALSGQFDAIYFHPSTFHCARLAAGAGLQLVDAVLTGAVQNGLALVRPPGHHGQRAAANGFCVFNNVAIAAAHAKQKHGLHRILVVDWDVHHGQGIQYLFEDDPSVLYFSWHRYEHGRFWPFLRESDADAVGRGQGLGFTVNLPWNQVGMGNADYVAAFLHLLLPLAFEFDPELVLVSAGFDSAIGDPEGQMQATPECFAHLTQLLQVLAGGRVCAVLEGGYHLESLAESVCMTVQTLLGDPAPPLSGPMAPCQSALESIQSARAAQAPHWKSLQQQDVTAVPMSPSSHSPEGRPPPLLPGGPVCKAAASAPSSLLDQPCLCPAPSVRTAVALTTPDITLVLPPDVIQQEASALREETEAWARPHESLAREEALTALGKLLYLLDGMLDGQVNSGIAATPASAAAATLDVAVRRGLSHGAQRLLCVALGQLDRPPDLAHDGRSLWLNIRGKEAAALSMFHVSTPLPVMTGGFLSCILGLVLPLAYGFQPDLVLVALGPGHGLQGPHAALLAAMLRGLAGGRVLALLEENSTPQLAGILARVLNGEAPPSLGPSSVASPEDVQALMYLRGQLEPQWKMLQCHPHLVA
The assay is described as follows: Inhibition of HDAC10 (unknown origin).

Histone deacetylase 1, sequence (Q13547 whole entry): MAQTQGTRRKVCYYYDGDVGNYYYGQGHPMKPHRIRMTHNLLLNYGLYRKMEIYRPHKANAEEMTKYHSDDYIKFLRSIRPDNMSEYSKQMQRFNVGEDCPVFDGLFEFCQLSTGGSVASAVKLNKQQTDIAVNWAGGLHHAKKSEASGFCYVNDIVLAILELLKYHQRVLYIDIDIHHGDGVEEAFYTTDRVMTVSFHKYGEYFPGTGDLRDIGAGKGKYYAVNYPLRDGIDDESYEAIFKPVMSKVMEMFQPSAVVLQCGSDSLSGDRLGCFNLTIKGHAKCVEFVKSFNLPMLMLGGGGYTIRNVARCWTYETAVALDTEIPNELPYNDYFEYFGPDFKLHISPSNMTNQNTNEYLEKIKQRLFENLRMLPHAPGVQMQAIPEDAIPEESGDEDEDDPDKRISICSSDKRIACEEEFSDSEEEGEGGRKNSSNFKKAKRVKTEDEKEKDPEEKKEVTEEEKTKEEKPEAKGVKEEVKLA
Histone deacetylase 3, sequence (O15379 whole entry): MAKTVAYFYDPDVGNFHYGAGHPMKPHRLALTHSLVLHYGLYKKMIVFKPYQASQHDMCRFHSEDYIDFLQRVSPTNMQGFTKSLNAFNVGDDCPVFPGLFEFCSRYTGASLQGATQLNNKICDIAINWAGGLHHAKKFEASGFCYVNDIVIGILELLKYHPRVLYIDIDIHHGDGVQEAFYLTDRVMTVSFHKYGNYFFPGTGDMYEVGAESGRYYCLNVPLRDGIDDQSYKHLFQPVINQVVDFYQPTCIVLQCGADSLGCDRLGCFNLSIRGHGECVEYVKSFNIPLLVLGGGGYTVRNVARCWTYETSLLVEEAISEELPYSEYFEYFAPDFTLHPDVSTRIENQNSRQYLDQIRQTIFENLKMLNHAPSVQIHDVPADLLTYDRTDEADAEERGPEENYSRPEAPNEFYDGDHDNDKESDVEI
Histone deacetylase 4, sequence (P56524 whole entry): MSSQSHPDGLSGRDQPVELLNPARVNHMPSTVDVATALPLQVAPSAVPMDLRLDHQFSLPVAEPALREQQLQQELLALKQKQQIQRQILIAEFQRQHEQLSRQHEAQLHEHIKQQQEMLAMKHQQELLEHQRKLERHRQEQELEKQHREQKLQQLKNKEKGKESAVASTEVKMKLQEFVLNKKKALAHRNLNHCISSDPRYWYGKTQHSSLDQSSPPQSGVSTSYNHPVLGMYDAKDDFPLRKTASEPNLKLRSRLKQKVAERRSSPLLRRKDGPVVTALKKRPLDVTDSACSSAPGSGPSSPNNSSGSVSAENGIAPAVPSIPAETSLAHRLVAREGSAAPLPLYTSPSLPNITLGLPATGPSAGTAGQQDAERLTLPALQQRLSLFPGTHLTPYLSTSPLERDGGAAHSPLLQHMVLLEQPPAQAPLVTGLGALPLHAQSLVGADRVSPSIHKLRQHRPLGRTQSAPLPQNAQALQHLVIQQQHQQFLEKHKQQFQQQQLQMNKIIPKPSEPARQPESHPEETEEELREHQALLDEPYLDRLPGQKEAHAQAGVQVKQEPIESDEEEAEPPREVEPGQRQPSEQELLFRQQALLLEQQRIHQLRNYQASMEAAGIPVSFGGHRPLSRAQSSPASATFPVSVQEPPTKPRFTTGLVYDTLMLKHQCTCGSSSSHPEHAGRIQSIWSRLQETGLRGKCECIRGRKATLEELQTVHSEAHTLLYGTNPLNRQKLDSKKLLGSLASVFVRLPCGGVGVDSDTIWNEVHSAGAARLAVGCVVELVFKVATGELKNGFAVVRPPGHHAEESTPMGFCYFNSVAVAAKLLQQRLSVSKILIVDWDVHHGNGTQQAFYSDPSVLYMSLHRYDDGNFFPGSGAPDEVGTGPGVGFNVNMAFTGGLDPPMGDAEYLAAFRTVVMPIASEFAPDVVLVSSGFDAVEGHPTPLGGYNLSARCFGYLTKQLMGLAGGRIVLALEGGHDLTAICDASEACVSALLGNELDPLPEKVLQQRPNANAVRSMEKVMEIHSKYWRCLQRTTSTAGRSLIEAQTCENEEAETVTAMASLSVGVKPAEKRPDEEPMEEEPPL

Turning to `O=C(CCc1ccc(Oc2cccs2)c(O)c1)Nc1ccc(C(=O)NO)cc1`, the results for the IC50 against Histone deacetylase 1 and at Histone deacetylase 8 were 0.024 µM and 0.152 µM, respectively.

As for `O=C(/C=C/c1cccc(Nc2ncnc3cc4c(cc23)OCCO4)c1)NO`, the IC50 on Histone deacetylase 1 came out at 0.29 µM; in [1] it was 0.56 µM; against Histone deacetylase 3, 0.5 µM.

With `CC(C)Cc1c(OCCOc2cccc(/C=C/C(=O)NO)c2)ccc2c1OC(=O)CC2`, the IC50 is 0.0667 µM against Histone deacetylase 1 and 0.006 µM in assay [1].

In the case of `CCc1nnc(NS(=O)(=O)c2ccc(N/C=C3\Sc4ccccc4C3=O)cc2)s1`, the half-inhibitory concentration (IC50) against Histone deacetylase was found to be 4.2 µM.

For `CCc1nnc(NS(=O)(=O)c2ccc(Nc3nc(C)c(C(=O)Nc4ccccc4)s3)cc2)s1`, the IC50 against Histone deacetylase came out at 32 µM.

Take `OC1(c2ccccc2)C=C(c2ccccc2)CO1` (stereo not drawn): the results for the IC50 on Histone deacetylase 1 and against Histone deacetylase 2 were 2.74 µM and 0.17 µM, respectively.

Take `O=C(NO)c1ccc(CC(=O)N(CCO)c2ccccc2)cc1`: the IC50 at Histone deacetylase 1 is 2.9 µM; on Histone deacetylase 7, greater than 10 µM; against Histone deacetylase 11, greater than 10 µM; against Histone deacetylase 4 it was greater than 10 µM; at Histone deacetylase 9, greater than 10 µM; at Histone deacetylase 5, greater than 10 µM. Moreover, the IC50 against Histone deacetylase 3 came out at 1.7 µM; at Histone deacetylase 8 it was 2.8 µM; in assay [2] it was 3 µM.

Take `O=C(CCCCCCNC(=O)c1c(-c2ccc(O)cc2)sc2cc(O)ccc12)NO`: the IC50 against Histone deacetylase 1 was 0.168 µM; against Histone deacetylase 3, 0.128 µM; at Histone deacetylase 2 it was 0.665 µM; at Histone deacetylase 8, 0.4 µM.

For `CN(C)Cc1ccc(C(=O)Nc2cc(-c3ccccc3)ccc2N)cc1`, the IC50 against Histone deacetylase 1 turned out to be 0.01 µM; against Histone deacetylase 3 it was 5.2 µM; on Histone deacetylase 2 it was 0.02 µM.

As to `CN(CCc1ccccc1)S(=O)(=O)c1cccc(/C=C/C(=O)NO)c1`, the half-inhibitory concentration (IC50) at Histone deacetylase 1 came out at 0.005 µM; against Histone deacetylase 4, 0.5 µM; against Histone deacetylase 9, 16.9 µM; against Histone deacetylase 5 it was 10.7 µM; in [1], 0.005 µM; at Histone deacetylase 3, 0.0034 µM. Besides, the concentration for half-maximal inhibition (IC50) was found to be 0.0002 µM against Histone deacetylase 2 and 0.15 µM at Histone deacetylase 8.

On Histone deacetylase, `CC[N+]1=C(/C=C/C=C/C=C2/N(CCCCC(=O)N(CCc3c(C)[nH]c4ccccc34)Cc3ccc(/C=C/C(=O)NO)cc3)c3ccc4c(S(=O)(=O)O)cc(S(=O)(=O)O)cc4c3C2(C)C)C(C)(C)c2c1ccc1c(S(=O)(=O)[O-])cc(S(=O)(=O)O)cc21` registered a half-inhibitory concentration (IC50) of 0.0096 µM.

With `COc1cc2c(Nc3cccc(/C=C/C(=O)NO)c3)ncnc2cc1OCCCN1CCOCC1`, the values for the IC50 (against Histone deacetylase 1; in assay [1]; on Histone deacetylase 3) were 0.16 µM, 0.56 µM and 0.18 µM, respectively.

As for `[11CH3]n1cc(CCNCc2ccc(/C=C/C(=O)NO)cc2)c2ccccc21`, the IC50 on Histone deacetylase 1 worked out at 0.0002 µM; against Histone deacetylase 7, 2.04 µM; on Histone deacetylase 4, 0.655 µM; against Histone deacetylase 9, 4.85 µM; at Histone deacetylase 5, 0.099 µM; in assay [1], 0.0016 µM. For the same compound, the IC50 on Histone deacetylase 3 came out at 0.0004 µM; against Histone deacetylase 2 it was 0.0012 µM; on Histone deacetylase 8 it was 1.04 µM.

In turn, `CC1(C)C(=O)N(c2ccc(C#N)c(C(F)(F)F)c2)C(=O)N1Cc1ccc(-c2cn(CCCCCCC(=O)NO)nn2)cc1` showed an IC50 at Histone deacetylase of 0.69 µM.

`O=C(CCCCCn1cc(-c2ccc(C(=O)c3c(-c4ccc(O)cc4)sc4cc(O)ccc34)cc2)nn1)NO`: the IC50 at Histone deacetylase 1 came out at 1.03 µM; on Histone deacetylase 3, 0.748 µM; against Histone deacetylase 2 it was 1.82 µM; on Histone deacetylase 8, 29.9 µM.
